Measured values reported in the supplement of paper PMC10307832.

Columns and labels:
Experiment in all cases: relative viability (nuclei count vs DMSO), 5 days (fraction); higher = more cells survive
GSK-J4 + Palbociclib = compound: CCOC(=O)CCNc1cc(N2CCc3ccccc3CC2)nc(-c2ccccn2)n1 [GSK-J4] + CC(=O)c1c(C)c2cnc(Nc3ccc(N4CCNCC4)cn3)nc2n(C2CCCC2)c1=O [Palbociclib] (partner 0.5 µM)
Method in brief: (§1)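 Relative viability equals treated-well nuclei counts divided by vehicle-well nuclei counts. Counts came from 4× images of lung cancer cell lines grown in 1536-well plates for 5 days after pin-tool dosing on the day after seeding. Dosing used one drug alone or a fixed anchor-drug dose plus five library-drug doses (not always all listed) in √10 steps, and values are medians of duplicate plates.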

GSK-J4 + Luminespib = compound: CCOC(=O)CCNc1cc(N2CCc3ccccc3CC2)nc(-c2ccccn2)n1 [GSK-J4] + CCNC(=O)c1noc(-c2cc(C(C)C)c(O)cc2O)c1-c1ccc(CN2CCOCC2)cc1 [Luminespib] (partner 0.01 µM)
Method in brief: as §1

GSK-J4 + AZD7762 = compound: CCOC(=O)CCNc1cc(N2CCc3ccccc3CC2)nc(-c2ccccn2)n1 [GSK-J4] + NC(=O)Nc1cc(-c2cccc(F)c2)sc1C(=O)N[C@H]1CCCNC1 [AZD7762] (partner 0.2 µM)
Method in brief: as §1

AZ3146 + Palbociclib = compound: CN1CCC(CC1)OC2=CC(=C(C=C2)NC3=NC=C4C(=N3)N(C(=O)N4C)C5CCCC5)OC [AZ3146] + CC(=O)c1c(C)c2cnc(Nc3ccc(N4CCNCC4)cn3)nc2n(C2CCCC2)c1=O [Palbociclib] (partner 0.5 µM)
Method in brief: as §1

| Cell Line | relative viability (GSK-J4 + Palbociclib; first compound 0.5 µM) | relative viability (GSK-J4 + Palbociclib; first compound 1.581 µM) | relative viability (GSK-J4 + Palbociclib; first compound 5 µM) | relative viability (GSK-J4 + Palbociclib; first compound 15.81 µM) | relative viability (GSK-J4 + Palbociclib; first compound 50 µM) | relative viability (GSK-J4 + Luminespib; first compound 0.5 µM) | relative viability (GSK-J4 + Luminespib; first compound 1.581 µM) | relative viability (GSK-J4 + Luminespib; first compound 5 µM) | relative viability (GSK-J4 + Luminespib; first compound 15.81 µM) | relative viability (GSK-J4 + Luminespib; first compound 50 µM) | relative viability (GSK-J4 + AZD7762; first compound 0.5 µM) | relative viability (GSK-J4 + AZD7762; first compound 1.581 µM) | relative viability (GSK-J4 + AZD7762; first compound 5 µM) | relative viability (GSK-J4 + AZD7762; first compound 15.81 µM) | relative viability (GSK-J4 + AZD7762; first compound 50 µM) | relative viability (AZ3146 + Palbociclib; first compound 0.08 µM) | relative viability (AZ3146 + Palbociclib; first compound 0.253 µM) | relative viability (AZ3146 + Palbociclib; first compound 0.8 µM) | relative viability (AZ3146 + Palbociclib; first compound 2.53 µM) | relative viability (AZ3146 + Palbociclib; first compound 8 µM) |
| --- | --- | --- | --- | --- | --- | --- | --- | --- | --- | --- | --- | --- | --- | --- | --- | --- | --- | --- | --- | --- |
| HCC-827 | 0.539 | 0.46 | 0.543 | 0.431 | 0.411 | 0.566 | 0.629 | 0.832 | 0.405 | 0.526 | 0.203 | 0.565 | 0.252 | 0.197 | 0.21 | 0.544 | 0.471 | 0.467 | 0.421 | 0.516 |
| NCI-H1623 |  |  |  |  |  | 0.556 | 0.427 | 0.677 | 0.432 | 0.283 |  |  |  |  |  |  |  |  |  |  |
| NCI-H3122 | 0.18 | 0.2 | 0.181 | 0.177 | 0.191 | 0.0789 | 0.067 | 0.119 | 0.0946 | 0.121 | 1.01 | 0.917 | 0.916 | 0.93 | 1 | 0.179 | 0.19 | 0.228 | 0.23 | 0.19 |
| RERF-LC-KJ | 1.07 | 0.954 | 1.13 | 1.04 | 0.728 | 1.23 | 1.17 | 1.31 | 1.12 | 0.584 | 0.916 | 0.825 | 0.812 | 0.821 | 0.672 | 1.05 | 1.17 | 1.01 | 1.21 | 0.833 |
| NCI-H1703 |  |  |  |  |  |  |  |  |  |  | 0.117 |  | 0.113 | 0.119 | 0.119 |  |  |  |  |  |
| SK-LU-1 | 0.362 | 0.421 | 0.346 | 0.336 | 0.295 | 0.214 | 0.195 | 0.166 | 0.201 | 0.212 |  |  |  |  |  | 0.375 | 0.365 | 0.355 | 0.404 | 0.386 |
| NCI-H1563 |  |  |  |  |  | 0.513 | 0.484 | 0.477 | 0.502 | 0.526 |  |  |  |  |  |  |  |  |  |  |
| HCC-366 | 0.357 | 0.322 |  | 0.357 | 0.354 |  |  |  |  |  | 0.325 | 0.258 |  | 0.226 | 0.312 | 0.312 | 0.398 | 0.419 | 0.391 | 0.271 |
| NCI-H2228 | 0.672 | 0.765 | 0.817 | 0.784 | 0.722 | 0.189 | 0.124 | 0.152 | 0.143 | 0.124 |  |  |  |  |  | 0.671 | 0.878 | 0.728 | 0.622 | 0.59 |
| NCI-H1650 | 0.34 | 0.287 | 0.353 | 0.371 | 0.283 | 0.17 | 0.222 | 0.228 | 0.153 | 0.231 |  |  |  |  |  | 0.301 | 0.343 | 0.366 | 0.352 | 0.283 |
| NCI-H1648 | 0.293 |  | 0.358 |  | 0.3 |  |  |  |  |  | 0.676 |  | 0.925 |  | 0.843 |  |  | 0.27 | 0.298 | 0.232 |
| SW 1573 | 0.38 | 0.336 | 0.347 | 0.382 | 0.237 | 0.199 | 0.0964 | 0.268 | 0.213 | 0.148 |  |  |  |  |  | 0.359 | 0.368 | 0.421 | 0.401 | 0.358 |
| COR-L23 | 0.274 | 0.233 |  | 0.251 | 0.258 | 0.581 | 0.647 |  | 0.68 | 0.514 |  |  |  |  |  | 0.244 | 0.351 | 0.328 | 0.321 | 0.278 |
| NCI-H2009 | 0.242 | 0.166 | 0.223 | 0.216 | 0.202 | 1.05 | 0.918 |  | 0.938 | 0.407 |  |  |  |  |  | 0.256 | 0.227 | 0.243 | 0.171 | 0.204 |
| NCI-H2023 | 0.317 | 0.371 | 0.385 | 0.41 | 0.435 | 0.73 | 0.685 | 0.862 | 0.76 | 0.472 |  |  |  |  |  | 0.347 | 0.343 | 0.364 | 0.311 | 0.255 |
| SK-MES-1 | 0.314 | 0.29 | 0.319 | 0.283 | 0.313 | 0.695 | 0.731 | 0.718 | 0.686 | 0.37 |  |  |  |  |  | 0.331 | 0.344 | 0.346 | 0.291 | 0.305 |
| NCI-H661 | 0.41 | 0.38 | 0.388 | 0.409 | 0.361 | 0.911 | 0.902 | 0.929 | 0.904 | 0.6 |  |  |  |  |  | 0.443 | 0.429 | 0.42 | 0.429 | 0.4 |
| HCC-78 | 0.498 |  | 0.48 | 0.435 | 0.486 |  |  |  |  |  | 0.686 | 0.702 | 0.874 | 0.485 | 0.583 | 0.486 | 0.483 | 0.414 | 0.54 | 0.425 |
| NCI-H520 | 0.231 | 0.113 | 0.223 | 0.167 | 0.163 | 0.215 | 0.242 | 0.207 | 0.194 | 0.197 |  |  |  |  |  | 0.237 | 0.216 | 0.22 | 0.237 | 0.195 |
| NCI-H596 |  |  |  |  |  | 0.981 | 0.969 | 1.23 | 0.941 | 0.807 | 1.18 | 1.12 | 1.01 | 0.926 | 1.12 |  |  |  |  |  |
| COR-L 105 | 0.428 |  | 0.342 | 0.415 | 0.396 | 0.624 | 0.58 | 0.702 | 0.633 | 1.01 |  |  |  |  |  | 0.408 | 0.365 | 0.377 | 0.346 | 0.372 |
